Key:
[1] = target: T1, human adenosine A2a receptor (Homo sapiens, UniProt P29274); assay: Human adenosine A2a receptor radioligand binding assay ([125I]-AB-MECA, CHO cell membranes); details: for Selectivity A1/A2a: ratio obtained by dividing KiHA1 by KiHA2A; for Ki: recombinant human A2a receptor expressed in CHO cells, Ki from IC50 by Cheng-Prussoff equation, read-out: hA2a Ki
T1 construct: expressed in transfected cells; host or cells: CHO cells, semliki forest virus expression system; membrane preparation
T1 sequence (P29274 whole entry): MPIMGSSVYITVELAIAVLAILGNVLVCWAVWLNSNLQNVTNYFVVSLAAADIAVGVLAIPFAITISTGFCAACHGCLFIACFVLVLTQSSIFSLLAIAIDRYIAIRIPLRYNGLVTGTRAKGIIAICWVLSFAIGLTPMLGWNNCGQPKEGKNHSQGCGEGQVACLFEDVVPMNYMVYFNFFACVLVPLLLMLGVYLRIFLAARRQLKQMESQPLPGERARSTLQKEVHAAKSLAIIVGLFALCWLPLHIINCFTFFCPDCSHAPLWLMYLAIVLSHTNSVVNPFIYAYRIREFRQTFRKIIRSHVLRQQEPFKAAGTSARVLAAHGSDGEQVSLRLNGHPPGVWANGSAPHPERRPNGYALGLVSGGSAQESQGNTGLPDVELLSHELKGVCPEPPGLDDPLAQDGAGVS
Experimental: Human Adenosine A2a Receptor
The gene encoding human adenosine A2a receptor was recombinantly introduced and expressed in chinese hamster ovary (CHO) cells using the semliki forest virus expression system. Cells were harvested, washed twice by centrifugation, homogenized and again washed by centrifugation. The final washed membrane pellet was suspended in a Tris (50 mM) buffer containing 120 mM NaCl, 5 mM KCl, 2 mM CaCl2 and 10 mM MgCl2 (pH 7.4) (buffer A). The [^125I]-AB-MECA ([N(6)-(4-amino-3-iodobenzyl)-5′-N-methylcarbamoyl-adenosine]; 0.05 nM) binding assay was carried out in 96-well a plates in the presence of 20 μg of membrane protein and 0.1 U adenosine deaminase in a final volume of […] of buffer A. Non-specific binding was defined using xanthine amine congener (XAC; 2 μM). Compounds were tested at 10 concentrations from 10 μM-0.3 nM. All assays were conducted in duplicate and repeated at least two times. Assay plates were incubated for 1 hour at room temperature before filtration through Whatman Unifilter GF/C 96-well filter plates (preincubated with 0.3% polyethyleneimine). Filters were washed 3 times with 0.3 ml of cold (4° C.) Tris (50 mM)—NaC […]
[…] 1 (120 mM) buffer (pH 7.4). Microscint 40 scintillation fluid (50 μl) was added to each well and the wells sealed. After gentle shaking for 20 min, plates were counted on a Packard Topcount scintillation counter. IC50 values were calculated using a non-linear curve fitting program and Ki values calculated using the Cheng-Prussoff equation.
(§1) In accordance with the invention, it has been shown that compounds of formula I have a high affinity toward the A2A receptor. In Table I below specific values of prepared compounds are described, Values of KiHA2A and KiHA1 are shown in Table I for compounds of formula 1. A low Ki value is indicative of a particular compound's high affinity toward a particular receptor and conversely a higher Ki value is indicative of a lower affinity for that compound toward a particular receptor. […] Generally speaking, compounds that have a higher HA1/HA2A ratio are able to give a substantially complete blockade of the HA2A receptor without substantially affecting the A1 receptor.

[2] = target: T2, human adenosine A1 receptor (Homo sapiens, UniProt P30542); assay: Human adenosine A1 receptor radioligand binding assay ([3H]-DPCPX, SPA, CHO cell membranes); details: recombinant human A1 receptor expressed in CHO cells; [3H]-DPCPX 0.6 nM; Ki from IC50 by Cheng-Prussoff equation; read-out: hA1 Ki
T2 construct: expressed in transfected cells; host or cells: CHO cells, semliki forest virus expression system; membrane preparation
T2 sequence (P30542 1-326): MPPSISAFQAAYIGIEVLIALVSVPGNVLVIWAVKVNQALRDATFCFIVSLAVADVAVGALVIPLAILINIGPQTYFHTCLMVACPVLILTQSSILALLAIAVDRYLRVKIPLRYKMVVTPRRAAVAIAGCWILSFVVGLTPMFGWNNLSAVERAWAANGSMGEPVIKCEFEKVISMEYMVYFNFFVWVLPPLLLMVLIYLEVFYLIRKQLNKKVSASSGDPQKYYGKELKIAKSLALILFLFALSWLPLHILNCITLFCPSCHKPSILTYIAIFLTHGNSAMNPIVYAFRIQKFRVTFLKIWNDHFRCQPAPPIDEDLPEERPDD
Experimental: Human Adenosine A^1 Receptor
The gene encoding human adenosinie A1 receptor was recombinantly introduced and expressed in chinese hamster ovary (CHO) cells using the semliki forest virus expression system. Cells were harvested, washed twice by centrifugation, homogenized and again washed by centrifugation. The final washed membrane pellet was suspended in a Tris (50 mM) buffer containing 120 mM NaCl, 5 mM KCl, 2 mM CaCl2 and 10 mM MgCl2 (pH 7.4) (buffer A). The [^3H]-DPCPX (([propyl-3H]8-cyclopentyl-1,3-dipropyxanthine); 0.6 nM) binding assay was carried out in 96-well plates in the presence of 2.5 μg of membrane protein, 0.5 mg of Ysi-poly-1-lysine SPA beads and 0.1 U adenosine deaminase in a final volume of 200 μl of buffer A. Non-specific binding was defined using xanthine amine congener (XAC; 2 μM). Compounds were tested at 10 concentrations from 10 μM-0.3 nM. All assays were conducted in duplicate and repeated at least two times. Assay plates were incubated for 1 hour at room temperature before centrifugation and then bound ligand determined using a Packard Topcount scintillation counter. IC50 values were calculated using a non-linear curve fitting program and Ki values calculated using the Cheng-Prussoff equation.
as §1

Selectivity A1/A2a [1]	Ki [1]	Ki [2]	Structure (SMILES)
15.9	208 nM	3300 nM	COc1ccc(-c2cccs2)n2nc(NC(=O)c3cccc(CCl)c3)nc12 [Example 20, 3-Chloromethyl-N-(8-methoxy-5-thiophen-2-yl-[1,2,4]triazolo[1,5-a]pyridin-2-yl)-benzamide]
11.6	176 nM	2030 nM	COc1ccc(-c2ccccc2)n2nc(NC(=O)c3cccc(F)c3)nc12 [Example 3, 3-Fluoro-N-(8-methoxy-5-phenyl-[1,2,4]triazolo[1,5-a]pyridin-2-yl)-benzamide]
43.4	65.1 nM	2830 nM	COc1ccc(-c2ccccc2)n2nc(NC(=O)c3ccc(C)s3)nc12 [Example 23, 5-Methyl-thiophene-2-carboxylic acid(8-methoxy-5-phenyl-[1,2,4]triazolo[1,5-a]pyridin-2-yl)-amide]

— patent publication US6514989B1, “Aromatic and heteroaromatic substituted 1,2,4-triazolo pyridine derivatives” (Hoffmann-La Roche Inc., priority 2001, dated 2003)
